# Ends that are not written are not given here. Peptide text beside a SMILES is read from it. * marks the point of attachment. Octanoyl = CCCCCCCC(=O)*
# Legend:
# [1] = test system: Wil-2WT human lymphoblastoid tissue culture cell line; assay: Blocking of binding of I125-tagged IgE to Wil-2WT cells in vitro
# Method: In this regard, the 8 carbon chain acyl substituted peptide, octanoyl-Asp-Ser-Asp-Pro-Arg, as well as the […] acyl substituted peptide, acetoyl-Asp-Ser-Asp-Pro-Arg, were prepared by the method outlined in Example 10 above. These peptides were tested, in vitro, for their blocking ability with respect to the Wil-2WT human lymphoblastoid tissue culture cell line as follows.
# Wil-2WT cells in culture medium were centrifuged at about 2000 RPM. The separated cells were mixed with minimal essential medium (MEM) and recentrifuged at 2000 RPM. The supernatent was decanted off completely and the residual cells were suspended in MEM+3% human serum albumin (HSA). The cell suspension was divided into suitable aliquots in reaction tubes. Blanks and control reaction tubes were also prepared. To various of the cell suspension tubes, were added known amount of Sha Myeloma E; Sha Myeloma E and octanoyl-Asp-Ser-Asp-Pro-Arg; or Sha Myeloma E and acetoyl-Asp-Ser-Asp-Pro-Arg. After mixing and standing at room temperature for approximately one hour, a known quantity of deaggregated IgE, tagged with radioactive iodine (I^125) was added to the tubes. After standing a short time, the capped tubes were mixed by slow inversion over an hour's time. […] The suspension was then counted on a gamma counter in order to determine the amount of tagged IgE bound to the Wil-2WT cells.
# DBA white mice = assay: Acute toxicity in mice; type: in vivo; settings: for survival 24 to 72 hours post-injection: 1.4 ml total i.d./s.c./i.v./i.p.
# Method: Acute toxicity was determined as follows:
# DBA white mice (average weight 15 g.) were each injected with 1.4 ml. of a solution of the peptide in phosphate buffered saline, pH 7.4, as follows:
# 0.1 ml. × 3 intradermally
# 0.1 ml. × 3 subcutaneously
# 0.6 ml. intraperitoneally
# The peptides and concentrations used were as follows: […]
# [2] = test system: Prausnitz-Kustner (P-K) reaction; assay: Prausnitz-Kustner (P-K) reaction blocking assay in human volunteers; type: in vivo; settings: peptide approx. 6 μg/ml
# Method: The "blocking" activity of the polypeptides of the invention can be assayed by utilization of the classic Prausnitz-Kustner (P-K) reaction. In this classic method, a known allergic serum i.e., one that contains IgE specific for a known antigen or allergen is injected intradermally into a human volunteer. After waiting a period of time, e.g. 20 or more hours, the injected sites are then challenged with a prick or injection of a solution of an antigen that is specific for the IgE in the injected serum. Within the next 10 to 30 minutes a positive reaction is evidenced by the development of a wheal (and flare) at the injected site. The more extensive the diameter of the wheal the more intensive is the allergic reaction. That is, a more extensive wheal indicates a greater release of histamine into the tissues at the injected site. Conversely, the development of wheals of lesser diameter or the absence of any wheal at all indicates diminished allergic reaction and/or no allergic reaction at all. The P-K reaction as noted above is a classic test and is universally known and utilized by allergists.
# All of these assays were performed using a single proven safe P-K donor serum that contains IgE specific for guinea pig allergens.
# Peptide solutions were either injected intradermally 1 to 24 hours prior to the P-K serum, or mixed with dilutions of the P-K serum for simultaneous injection. Initial tests were performed using the P-K serum at from 1:4 to 1:200 dilutions. Further studies were run at a fixed P-K dilution of 1:32 while the invention peptide solutions were varied to contain from about 1 mM to […] of the peptide being tested. Injected sites on the volunteers were challenged by prick-puncture of guinea pig BCA 1:40 w/v (purchased from Berkeley Biologicals, Inc.).
# Human volunteers were chosen who had serum IgE levels below 100 U/ml. (242 ng/ml.) which levels have been previously shown to assure successful P-K reactivity. […] P-K and skin tests were performed on the back and/or forearm. […]
# wheal and flare reaction = assay: Displacement of IgE: direct skin challenge in an individual sensitive to guinea pig antigens; type: in vivo, human; settings: single sensitive individual
# Method: It has also been determined that the active polypeptides of the invention appear to have the ability to "displace" IgE from mast cells as well as to prevent the binding of the IgE to the receptors. In a single test, an individual known to have extreme sensitivity to guinea pig antigens, that is a person with a high natural concentration of guinea-pig-antigen-sensitive IgE, was injected with polypeptides in accordance with the invention, and […] reaction to guinea pig antigen was noted.
# Specifically, approximately 2 nM each of Asp-Ser-Asp-Pro-Arg and Ala-Asp-Ser-Asp-Pro-Arg were each intradermally injected into 3 marked sites. For comparison, TASME, as well as a control of the buffer diluent alone, was also each injected into 3 marked sites. At one, five and twenty-four hours subsequent to the polypeptide and control injection, one of each peptide and one diluent site were prick-puncture challenged with guinea pig antigen. […] However, at the twenty-four hour challenge, the wheal at the Asp-Ser-Asp-Pro-Arg site was approximately 45% smaller; while at the Ala-Asp-Ser-Asp-Pro-Arg site, the wheal was approximately 23% smaller.
molecule,measurement,setting,value
CCCCCCCC(=O)N[C@@H](CC(=O)O)C(=O)N[C@@H](CO)C(=O)N[C@@H](CC(=O)O)C(=O)N1CCC[C@H]1C(=O)N[C@@H](CCCNC(=N)N)C(=O)O [octanoyl-Asp-Ser-Asp-Pro-Arg] (Octanoyl-DSDPR-OH),"blocking of the binding of IgE to Wil-2WT cells, highest seen","[1]; as high as, in several procedures",≤ 25%
N=C(N)NCCC[C@H](NC(=O)[C@@H]1CCCN1C(=O)[C@H](CC(=O)O)NC(=O)[C@H](CO)NC(=O)[C@@H](N)CC(=O)O)C(=O)O [Asp-Ser-Asp-Pro-Arg] (H-DSDPR-OH),survival 24 to 72 hours post-injection,"DBA white mice; 10 μg/ml (1 mg/kg), 8 mice",all still living
same,post-mortem gross and microscopic examination of tissues and organs,"DBA white mice; 10 μg/ml (1 mg/kg), 8 mice",no local or systemic toxico-logical abnormalities
same,survival 24 to 72 hours post-injection,"DBA white mice; 13 μg/ml (1.3 mg/kg), 8 mice",all still living
same,post-mortem gross and microscopic examination of tissues and organs,"DBA white mice; 13 μg/ml (1.3 mg/kg), 8 mice",no local or systemic toxico-logical abnormalities
C[C@H](N)C(=O)N[C@@H](CC(=O)O)C(=O)N[C@@H](CO)C(=O)N[C@@H](CC(=O)O)C(=O)N1CCC[C@H]1C(=O)N[C@@H](CCCNC(=N)N)C(=O)O [Ala-Asp-Ser-Asp-Pro-Arg] (H-ADSDPR-OH),survival 24 to 72 hours post-injection,"DBA white mice; 5 μg/ml (375 mg/kg), 6 mice",all still living
same,post-mortem gross and microscopic examination of tissues and organs,"DBA white mice; 5 μg/ml (375 mg/kg), 6 mice",no local or systemic toxico-logical abnormalities
tosyl-L-arginine sarcosine methylester [TASME],"inhibition, individual high","[2]; highest of six individuals, 0.1 ml per site",40%
same,"inhibition, individual low","[2]; lowest of six individuals, 0.1 ml per site",0%
same,average % inhibition (P-K wheal),"[2]; six individuals, 0.1 ml intradermally, 0.05 ml diluted P-K serum containing 0.2 ng IgE, versus control wheal",24%
same,inhibition of the wheal and flare reaction,wheal and flare reaction; challenge at one and five hours after intradermal injection of approx. 2 nM,No inhibition
same,wheal smaller than at buffered saline diluent site,wheal and flare reaction; challenge at twenty-four hours after intradermal injection of approx. 2 nM,No reduction
acetoyl-Asp-Ser-Asp-Pro-Arg (Ac-DSDPR),blocking ability on Wil-2WT cells (in words),[1],did not exhibit any blocking ability whatsoever

# Source: patent US4161522A, “Method for blocking allergic responses” (The Regents of the University of California, priority 1978, dated 1979)
